In ChEMBL document CHEMBL1154005 (J Med Chem, 2009):
Activity calls are given as the source filed them.

Assays:
Cytochrome P450 2C8 = biological target: T1, Cytochrome P450 2C8 (Homo sapiens, UniProt P10632); experiment: Inhibition of CYP2C8 in human liver microsomes using montelukast substrate; format: ADME, Microsome
T1 sequence (P10632 whole entry): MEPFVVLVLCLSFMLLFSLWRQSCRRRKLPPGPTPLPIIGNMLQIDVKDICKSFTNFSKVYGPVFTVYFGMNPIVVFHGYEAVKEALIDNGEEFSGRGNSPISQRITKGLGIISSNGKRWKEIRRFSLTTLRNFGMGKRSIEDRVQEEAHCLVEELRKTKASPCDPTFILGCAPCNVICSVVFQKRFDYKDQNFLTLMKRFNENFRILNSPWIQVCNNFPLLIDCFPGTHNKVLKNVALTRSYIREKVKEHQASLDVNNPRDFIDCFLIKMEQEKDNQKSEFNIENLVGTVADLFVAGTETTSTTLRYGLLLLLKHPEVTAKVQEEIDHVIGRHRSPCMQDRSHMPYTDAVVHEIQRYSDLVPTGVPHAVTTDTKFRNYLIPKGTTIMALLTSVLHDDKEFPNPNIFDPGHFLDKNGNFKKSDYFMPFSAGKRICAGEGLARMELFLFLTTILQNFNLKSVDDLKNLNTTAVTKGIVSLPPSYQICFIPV

Cytochrome P450 2C9 = Cytochrome P450 2C9 (Homo sapiens, UniProt P11712); experiment: Inhibition of CYP2C9 in human liver microsomes using diclofenac substrate; format: ADME, Microsome
[1] = Oral bioavailability in C57BL/6 mouse at 2 mg/kg; format: ADME, organism-based; conditions: in vivo
[2] = Plasma clearance in C57BL/6 mouse at 1 mg/kg, iv or 2 mg/kg, po; format: ADME, organism-based
[3] = Volume of distribution at steady state in C57BL/6 mouse at 1 mg/kg, iv or 2 mg/kg, po; format: ADME, organism-based; conditions: in vivo, read-out: Vdss
[4] = Cmax in C57BL/6 mouse at 2 mg/kg, po; format: ADME, organism-based; set-up: dose 2 mg/kg, route oral; conditions: in vivo
[5] = Half life in C57BL/6 mouse at 1 mg/kg, iv or 2 mg/kg, po; format: ADME, organism-based; conditions: in vivo
Adipocyte = experiment: Inhibition of lipolysis in IBMX-stimulated human adipocytes assessed as glycerol release after 5 hrs; format: functional, cell-based
Rattus norvegicus [6] = experiment: Reduction in free fatty acid level in 18 hrs fasted Sprague-Dawley rat at 100 mg/kg, po; format: functional, organism-based; set-up: dose 100 mg/kg
Rattus norvegicus [7] = experiment: Reduction in free fatty acid level in 18 hrs fasted po dosed Sprague-Dawley rat; format: functional, organism-based
[8] = biological target: Hydroxycarboxylic acid receptor 2 (Rattus norvegicus, UniProt Q80Z39); experiment: Agonist activity at rat GPR109A expressed by [35S]GTPgammaS binding assay; format: functional
Rattus norvegicus [9] = experiment: Toxicity in Sprague-Dawley rat assessed as plasma concentration at threshold dose for vasodilation at 100 mg/kg, sc; format: organism-based; set-up: dose 100 mg/kg, route subcutaneous; conditions: in vivo, read-out: Activity
Rattus norvegicus [10] = experiment: Plasma concentration in Sprague-Dawley rat at 100 mg/kg, sc; format: ADME, organism-based; set-up: dose 100 mg/kg, route subcutaneous; conditions: in vivo
[11] = Therapeutic index, ratio of plasma concentration at threshold dose for vasodilation to IC50 for free fatty acid reduction in Sprague-Dawley rat; format: cell-free; conditions: read-out: TI
Rattus norvegicus [12] = experiment: Toxicity in Sprague-Dawley rat assessed as induction of intense flushing by measuring blood perfusion change by Doppler flometry at 100 mg/kg, sc; format: organism-based; set-up: dose 100 mg/kg, route subcutaneous; conditions: in vivo
Rattus norvegicus [13] = experiment: Plasma concentration in Sprague-Dawley rat at 1 mg/kg, sc; conditions: read-out: Cp, in vivo
Rattus norvegicus [14] = experiment: Toxicity in Sprague-Dawley rat assessed as plasma concentration at threshold dose for vasodilation at 1 mg/kg, sc; conditions: read-out: Activity, in vivo

Chain of Cytochrome P450 2C9 (P11712 whole entry): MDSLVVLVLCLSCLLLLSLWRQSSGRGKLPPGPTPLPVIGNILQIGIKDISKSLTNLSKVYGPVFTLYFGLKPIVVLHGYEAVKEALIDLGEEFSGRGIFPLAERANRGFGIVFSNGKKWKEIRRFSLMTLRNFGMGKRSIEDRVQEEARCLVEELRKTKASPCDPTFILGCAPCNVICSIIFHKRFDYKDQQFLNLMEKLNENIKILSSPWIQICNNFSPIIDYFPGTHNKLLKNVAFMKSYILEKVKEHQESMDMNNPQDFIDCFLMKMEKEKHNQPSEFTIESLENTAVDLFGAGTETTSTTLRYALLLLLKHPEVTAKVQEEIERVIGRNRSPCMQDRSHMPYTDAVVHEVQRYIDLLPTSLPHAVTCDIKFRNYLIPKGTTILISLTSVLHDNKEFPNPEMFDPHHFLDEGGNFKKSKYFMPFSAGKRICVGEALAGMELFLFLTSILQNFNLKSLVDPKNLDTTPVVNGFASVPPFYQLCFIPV
Chain of Hydroxycarboxylic acid receptor 2 (Q80Z39 whole entry): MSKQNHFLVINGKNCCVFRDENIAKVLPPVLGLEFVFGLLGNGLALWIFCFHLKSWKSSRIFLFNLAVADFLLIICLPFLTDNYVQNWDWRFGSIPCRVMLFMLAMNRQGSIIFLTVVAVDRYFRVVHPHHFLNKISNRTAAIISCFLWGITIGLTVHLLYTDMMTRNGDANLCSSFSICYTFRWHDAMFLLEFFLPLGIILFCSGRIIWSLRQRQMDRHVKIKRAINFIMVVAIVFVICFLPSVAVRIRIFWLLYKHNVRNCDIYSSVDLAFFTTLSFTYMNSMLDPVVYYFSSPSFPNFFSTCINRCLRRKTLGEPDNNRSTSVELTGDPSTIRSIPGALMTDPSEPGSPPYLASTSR

SMILES	IC50 (Cytochrome P450 2C8) [µM]	IC50 (Cytochrome P450 2C9) [µM]	bioavailability [1] [%]	clearance [2] [mL/min/kg]	Vd [3] [L/kg]	Cmax [4] [nM]	half-life [5] [h]	IC50 (Adipocyte) [µM]	further results
O=C(CCc1noc2c1CCc1cc(O)ccc1-2)NC1=C(C(=O)O)CCCC1	44	11	–	–	–	–	–	–	–
O=C(CCc1cn2c(n1)sc1cc(O)ccc12)NC1=C(C(=O)O)CCCC1	–	12	25	0.9	0.32	3800	4.4	2.6	–
Cn1nc(CCC(=O)Nc2ccccc2C(=O)O)c2c1-c1ccc(O)cc1CC2	–	17	–	–	–	–	–	–	–
O=C(CCc1noc2c1ccc1cc(O)ccc12)Nc1ccccc1C(=O)O	–	0.99	–	–	–	–	–	0.15	–
Cn1c(=O)c2cc(O)ccc2c2ccc(CCC(=O)Nc3ccccc3C(=O)O)cc21	–	4.7	10	1.4	0.26	1260	2.3	–	–
O=C(CCc1noc2c1ccc1c(F)c(O)ccc12)NC1=C(C(=O)O)CCCC1	–	2	–	–	–	–	–	–	–
O=C(CCc1noc2c1CCc1cc(O)ccc1-2)Nc1ccccc1C(=O)O	5.9	2.2	8.2	9.7	1.1	620	1.8	–	–
O=C(CCc1noc2c1ccc1c(Cl)c(O)ccc12)NC1=C(C(=O)O)CCCC1	–	1.5	–	–	–	–	–	–	–
O=C(CCc1[nH]nc2c1ccc1cc(O)ccc12)Nc1ccccc1C(=O)O	5.8	9.2	–	–	–	–	–	0.06	–
O=C(CCc1cnn2c1ccc1cc(O)ccc12)NC1=C(C(=O)O)CCCC1	–	19	–	–	–	–	–	0.06	–
O=C(CCc1cn2c(n1)sc1cc(O)ccc12)NC1=C(C(=O)O)CCC1	–	12	–	–	–	–	–	–	–
O=C(CCc1noc2c1ccc1cc(O)ccc12)NC1=C(C(=O)O)CCCC1	–	12	–	–	–	–	–	–	–
O=C(CCc1[nH]nc2c1CCc1cc(O)ccc1-2)Nc1ccccc1C(=O)O	23	26	1.4	2.4	0.44	73	2.1	0.28	–
O=C(CCc1noc2c1Cc1cc(O)ccc1-2)Nc1ccccc1C(=O)O	20	8.5	–	–	–	–	–	–	–
O=C(CCc1nnn2c1ccc1cc(O)ccc12)Nc1ccccc1C(=O)O	–	1.5	6	7	0.95	170	1.7	0.02	–
O=C(CCc1noc2c1CCc1cc(O)ccc1-2)NC1=C(C(=O)O)CCC1	47	47	7.5	4.1	0.2	1830	1.9	–	–
O=C(CCc1cnn2c1CCc1cc(O)ccc1-2)Nc1ccccc1C(=O)O	11	18	17	12	1.8	350	2.9	0.11	Activity (Rattus norvegicus [6]): Active; IC50 (Rattus norvegicus [7]): 60 µM; EC50 [8]: 2.7 µM; concentration (Rattus norvegicus [9]): 500000 nM; concentration (Rattus norvegicus [10]): 500000 nM; selectivity ratio [11]: 8; Activity (Rattus norvegicus [12]): Not Active
O=C(CCc1cn2c(n1)sc1ccccc12)Nc1ccccc1C(=O)O	–	4.4	–	–	–	–	–	–	–
O=C(O)c1cccnc1 [NIACIN]	–	–	–	–	–	–	–	0.07	IC50 (Rattus norvegicus [7]): 5 µM; concentration (Rattus norvegicus [13]): 7600 nM; concentration (Rattus norvegicus [14]): 7600 nM
O=C(CCc1ccc2c(ccc3[nH]ncc32)c1)Nc1ccccc1C(=O)O	–	< 0.14	24	0.6	0.19	3900	3.5	–	–
O=C(CCc1cn2c(n1)sc1cc(O)ccc12)Nc1ccccc1C(=O)O	–	–	–	–	–	–	–	0.2	–
